Results reported in US20180200233A1, “COMPOSITIONS FOR PREVENTING CANCERS ASSOCIATED WITH HUMAN PAPILLOMA VIRUSES” (Loma Linda University, priority 2015, published 2018).

Key:
[1] = tested on: C33A cells; assay: MTT cell viability, HPV- C33A cells with TRAIL; type: cell-based, human; conditions: 100 μM myricetin or 50 μM spinacine for 4 h
Description: FIGS. 5A-B are graphs showing myricetin and spinacine (5) re-sensitized HPV^+, but not HPV^−, cells to treatment with TRAIL. SiHa (2×10^4 cells per well) and C33A cells (1×10^4 cells per well) were seeded into a 96-well plate and allowed to incubate overnight, then cells were pre-treated in the presence or absence of myricetin (100 μM) (FIG. 5A) or spinacine (50 μM) (FIG. 5B) for 4 h. The indicated concentration of TRAIL, along with cycloheximide (5 μg/ml) was added and cells were allowed to incubate overnight. Cell viability was measured by MTT assay, and the viability of cells untreated with TRAIL was set at 100%. Experiments were performed in triplicate, and error bars indicate the standard deviation.
The extracellular domain of human TRAIL was cloned into a pTriEx expression plasmid containing N-terminal Hisx6 tag. His-TRAIL was expressed in the E. coli BL-21 pLys strain and purified as previously described. Doxorubicin and cisplatin were purchased from Sigma. His-TRAIL, doxorubicin, and cisplatin were diluted in PBS to the desired concentration before using. […] All experiments were repeated at least three times (three biological replicates, carried out on different days), with each experimental group measured in triplicate within each of these individual experiments. […]

[2] = target: T1, GST-E6/His-caspase 8 (Human papillomavirus type 16, UniProt P03126); conditions: Yuan et al. 2012; cited from earlier work
T1 construct: made in house

[3] = Galli et al. 1989, 13-week oral study in rats, spinacine hydrochloride; cited from earlier work
[4] = target: T2, GST-E6 (Human papillomavirus type 16, UniProt P03126); assay: Direct binding to E6 (FIG. 9); design: species or system HPV 16
T2 construct: made in house
T2 sequence (P03126 whole entry): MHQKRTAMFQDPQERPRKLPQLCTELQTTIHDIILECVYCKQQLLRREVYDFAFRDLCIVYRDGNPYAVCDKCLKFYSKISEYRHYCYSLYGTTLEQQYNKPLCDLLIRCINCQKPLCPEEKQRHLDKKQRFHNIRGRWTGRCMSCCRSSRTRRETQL

T1 sequence (P03126 whole entry): as above

In the case of `O=c1c(O)c(-c2cc(O)c(O)c(O)c2)oc2cc(O)cc(O)c12` [Myricetin, reference compound], the “response of C33A cells to TRAIL-mediated apoptosis after pre-treatment (in words)” value [1] is given as “remained resistant” and the “inhibition of the E6/caspase 8 interaction in vitro (in words)” value [2] is given as “can inhibit the E6/caspase 8 interaction in vitro”.

In the case of `O=C(O)C1Cc2[nH]cnc2CN1` (centres unmarked) [Compound 5, 4,5,6,7-Tetrahydro-1H-imidazo(4,5-c)pyridine-6-carboxylic acid], the “safety and tolerability (in words)” value [3] is given as “safe, well-tolerated”, the “binding to GST-E6 (in words)” value ([4]; FIG. 9) is given as “able to bind to GST-E6” and the “N (binding stoichiometry)” value ([4]; spinacine binding to GST-E6, FIG. 9) is given as “about 0.5”.
